Reference: BindingDB's records for doi:10.1016/j.bmc.2006.08.003 (Hokuriku University, 2006)

target: T1, Lysosomal acid glucosylceramidase (Homo sapiens, UniProt P04062); assay: In Vitro Enzyme Inhibition; conditions: pH 5.5; 37 °C
T1 sequence (P04062 whole entry): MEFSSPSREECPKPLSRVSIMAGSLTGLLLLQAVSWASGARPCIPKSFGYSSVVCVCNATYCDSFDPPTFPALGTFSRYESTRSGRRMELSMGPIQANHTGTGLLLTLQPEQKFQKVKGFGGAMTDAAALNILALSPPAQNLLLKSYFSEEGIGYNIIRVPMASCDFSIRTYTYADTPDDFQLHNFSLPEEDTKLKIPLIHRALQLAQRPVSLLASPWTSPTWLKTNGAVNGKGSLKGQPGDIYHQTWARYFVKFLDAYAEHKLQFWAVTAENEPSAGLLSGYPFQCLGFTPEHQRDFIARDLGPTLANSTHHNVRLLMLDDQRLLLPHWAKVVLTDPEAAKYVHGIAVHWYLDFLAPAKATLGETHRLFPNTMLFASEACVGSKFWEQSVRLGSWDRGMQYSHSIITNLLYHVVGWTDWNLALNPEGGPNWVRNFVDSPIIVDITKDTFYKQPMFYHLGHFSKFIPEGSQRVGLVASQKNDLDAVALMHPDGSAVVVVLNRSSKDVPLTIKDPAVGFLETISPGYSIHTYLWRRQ

IC50 [µM] | Ki [µM] | SMILES
900 |  | C[C@H]1N[C@H](CO)[C@@H](O)[C@H](O)[C@H]1O [(2R,3R,4R,5S,6R)-2-(hydroxymethyl)-6-methylpiperidine-3,4,5-triol]
 | 110 | CCCC[C@H]1N[C@H](CO)[C@@H](O)[C@H](O)[C@H]1O [(2R,3S,4R,5R,6R)-2-butyl-6-(hydroxymethyl)piperidine-3,4,5-triol]
400 |  | CCC[C@H]1N[C@H](CO)[C@@H](O)[C@H](O)[C@H]1O [(2R,3R,4R,5S,6R)-2-(hydroxymethyl)-6-propylpiperidine-3,4,5-triol]
0.82 | 0.42 | CCCCCCCCN1C[C@H](O)[C@@H](O)[C@H](O)[C@H]1CO [(2R,3R,4R,5S)-2-(hydroxymethyl)-1-octylpiperidine-3,4,5-triol]
0.27 | 0.2 | CCCCCCCCC[C@H]1N[C@H](CO)[C@@H](O)[C@H](O)[C@H]1O [CN-DNJ]
4.2 | 2.3 | CCCCCC[C@H]1N[C@H](CO)[C@@H](O)[C@H](O)[C@H]1O [(2R,3S,4R,5R,6R)-2-hexyl-6-(hydroxymethyl)piperidine-3,4,5-triol]
0.5 | 0.28 | CCCCCCCC[C@H]1N[C@H](CO)[C@@H](O)[C@H](O)[C@H]1O [(2R,3R,4R,5S,6R)-2-(hydroxymethyl)-6-octylpiperidine-3,4,5-triol]
150 |  | CN1C[C@H](O)[C@@H](O)[C@H](O)[C@H]1CO [(2R,3R,4R,5S)-2-(hydroxymethyl)-1-methylpiperidine-3,4,5-triol]
700 |  | CCCN1C[C@H](O)[C@@H](O)[C@H](O)[C@H]1CO [(2R,3R,4R,5S)-2-(hydroxymethyl)-1-propylpiperidine-3,4,5-triol]
13 | 5.5 | CCCCCCN1C[C@H](O)[C@@H](O)[C@H](O)[C@H]1CO [(2R,3R,4R,5S)-1-hexyl-2-(hydroxymethyl)piperidine-3,4,5-triol]
